Read-outs that look alike come from different tables or passages of the source.
Assay: Single escalating dose IV infusion pharmacokinetics in healthy volunteers (noncompartmental)
Type: in vivo, human
Conditions: both sexes, human, plasma, iv; for concentration at 24.5 h: read-out: concentration at 24.5 hours after the start of infusion; for concentration at 0.25 h / concentration at 0.5 h / concentration at 0.75 h / concentration at 1 h / concentration at 2.5 h / concentration at 3.5 h / concentration at 8.5 h / concentration at 12.5 h / concentration at 6.5 h: r7-9=Subjects 1-3,r11=Mean,r13=Min,r14=Median,r15=Max,r17=Geometric Mean; for concentration at 0.5 h: Time 0.50 h
Method: Forty-five subjects have enrolled in the study.
Analysis of plasma concentration versus time data for calculation of standard pharmacokinetic (PK) parameters following intravenous infusion administration was conducted using Phoenix WinNonlin version 6.3 using a nominal infusion duration and scheduled blood sampling times. Random subject numbers were assigned by the bioanalytical laboratory to retain the blind.
(§1) Analysis of plasma concentration versus time data for calculation of standard pharmacokinetic (PK) parameters following intravenous infusion administration was conducted using Phoenix WinNonlin version 6.3 using a nominal infusion duration and scheduled blood sampling times.
as §1

[1] = 6 mg/m^2, Compound 1 Concentration, Cohort 1, 6 mg/m^2 IV
[2] = 12 mg/m^2, Compound 1 Concentration, Cohort 2, 12 mg/m^2 IV
[3] = 24 mg/m2, Cohort 3, 24 mg/m^2 IV, r6-8=Subjects 1-3,r10=Mean,r12=Min,r13=Median,r14=Max,r16=Geometric Mean

`CN1CCN(c2ccc(Nc3ncc4cc5n(c4n3)C3(CCCCC3)CNC5=O)nc2)CC1` [Compound 1, 2′-((5-(4-methylpiperazin-1-yl)pyridin-2-yl)amino)-7′,8′-dihydro-6′H-spiro[cyclohexane-1,9′-pyrazino[1′,2′:1,5]pyrrolo[2,3-d]pyrimidin]-6′-one] gave a concentration at 24.5 h (6 mg/m^2, Cohort 1, 6 mg/m^2 IV, 1 of 3 subjects measurable) of 0.000595 µg/mL, a concentration at 0.25 h [1] of 0.049 µg/mL and a concentration at 0.5 h [1] of 0.0469 µg/mL. It also gave a concentration at 0.75 h [1] of 0.0163 µg/mL, a concentration at 1 h (6 mg/m^2, Compound 1 Concentration, Cohort 1, 6 mg/m^2 IV, Time 1.00 h) of 0.0118 µg/mL and a concentration at 2.5 h (6 mg/m^2, Compound 1 Concentration, Cohort 1, 6 mg/m^2 IV, Time 2.50 h) of 0.00469 µg/mL. For the same compound, the concentration at 3.5 h (6 mg/m^2, Compound 1 Concentration, Cohort 1, 6 mg/m^2 IV, Time 3.50 h) was 0.00375 µg/mL, the concentration at 8.5 h (6 mg/m^2, Compound 1 Concentration, Cohort 1, 6 mg/m^2 IV, Time 8.50 h) was 0.00139 µg/mL and the concentration at 12.5 h (6 mg/m^2, Compound 1 Concentration, Cohort 1, 6 mg/m^2 IV, Time 12.50 h) was 0.000752 µg/mL. It also gave an AUC(0-inf) (12 mg/m2, Cohort 2, 12 mg/m^2 IV, mean, read-out: AUCinf averaged) of 0.148 µg·h/mL, a Cmax (12 mg/m2, Cohort 2, 12 mg/m^2 IV, mean, read-out: Cmax averaged) of 0.122 µg/mL and a half-life (12 mg/m2, Cohort 2, 12 mg/m^2 IV, mean, read-out: Half-lives averaged (converted)) of 8.22 h. The Tmax (12 mg/m2, Cohort 2, 12 mg/m^2 IV, median, read-out: median Tmax) was 0.5 h, the MRT inf (12 mg/m2, Cohort 2, 12 mg/m^2 IV, r6-8=Subjects 1-3,r10=Mean,r12=Min,r13=Median,r14=Max,r16=Geometric Mean) was 5.56 h and the AUC(0-inf) (12 mg/m2, Cohort 2, 12 mg/m^2 IV, r6-8=Subjects 1-3,r10=Mean,r12=Min,r13=Median,r14=Max,r16=Geometric Mean, read-out: AUCinf) was 0.148 µg·h/mL. The Cmax (12 mg/m2, Cohort 2, 12 mg/m^2 IV, r6-8=Subjects 1-3,r10=Mean,r12=Min,r13=Median,r14=Max,r16=Geometric Mean, read-out: Cmax) was 0.122 µg/mL, the Tmax (12 mg/m2, Cohort 2, 12 mg/m^2 IV, r6-8=Subjects 1-3,r10=Mean,r12=Min,r13=Median,r14=Max,r16=Geometric Mean, read-out: Tmax) was 0.417 h and the half-life (12 mg/m2, Cohort 2, 12 mg/m^2 IV, r6-8=Subjects 1-3,r10=Mean,r12=Min,r13=Median,r14=Max,r16=Geometric Mean, read-out: t½ (converted)) was 8.22 h. The half-life (12 mg/m2, Cohort 2, 12 mg/m^2 IV, range over subjects, read-out: Half-lives range) was 7.56 to 8.89 h, the concentration at 24.5 h (12 mg/m^2, Cohort 2, 12 mg/m^2 IV, range over 3 subjects) was 0.000506 to 0.00106 µg/mL and the concentration at 0.25 h [2] was 0.115 µg/mL. The concentration at 0.5 h [2] was 0.102 µg/mL, the concentration at 0.75 h [2] was 0.0332 µg/mL and the concentration at 1 h (12 mg/m^2, Compound 1 Concentration, Cohort 2, 12 mg/m^2 IV, Time 1.0 h) was 0.0239 µg/mL. The concentration at 2.5 h (12 mg/m^2, Compound 1 Concentration, Cohort 2, 12 mg/m^2 IV, Time 2.5 h) was 0.00875 µg/mL, the concentration at 3.5 h (12 mg/m^2, Compound 1 Concentration, Cohort 2, 12 mg/m^2 IV, Time 3.5 h) was 0.00789 µg/mL and the concentration at 6.5 h [2] was 0.00399 µg/mL. For the same compound, the concentration at 8.5 h (12 mg/m^2, Compound 1 Concentration, Cohort 2, 12 mg/m^2 IV, Time 8.5 h) was 0.00279 µg/mL, the concentration at 12.5 h (12 mg/m^2, Compound 1 Concentration, Cohort 2, 12 mg/m^2 IV, Time 12.5 h) was 0.00165 µg/mL and the AUC(0-inf) (24 mg/m2, Cohort 3, 24 mg/m^2 IV, mean, read-out: AUCinf averaged) was 0.287 µg·h/mL. For the same compound, the Cmax (24 mg/m2, Cohort 3, 24 mg/m^2 IV, mean, read-out: Cmax averaged) was 0.252 µg/mL, the half-life (24 mg/m2, Cohort 3, 24 mg/m^2 IV, mean, read-out: Half-lives averaged (converted)) was 9.88 h and the Tmax (24 mg/m2, Cohort 3, 24 mg/m^2 IV, median, read-out: median Tmax) was 0.5 h. For the same compound, the AUC(0-t) [3] was 0.261 µg·h/mL, the MRT inf [3] was 6.65 h and the AUC(0-inf) (24 mg/m2, Cohort 3, 24 mg/m^2 IV, r6-8=Subjects 1-3,r10=Mean,r12=Min,r13=Median,r14=Max,r16=Geometric Mean, read-out: AUCinf) was 0.287 µg·h/mL. The Cmax (24 mg/m2, Cohort 3, 24 mg/m^2 IV, r6-8=Subjects 1-3,r10=Mean,r12=Min,r13=Median,r14=Max,r16=Geometric Mean, read-out: Cmax) was 0.252 µg/mL, the Tmax (24 mg/m2, Cohort 3, 24 mg/m^2 IV, r6-8=Subjects 1-3,r10=Mean,r12=Min,r13=Median,r14=Max,r16=Geometric Mean, read-out: Tmax) was 0.5 h and the half-life (24 mg/m2, Cohort 3, 24 mg/m^2 IV, r6-8=Subjects 1-3,r10=Mean,r12=Min,r13=Median,r14=Max,r16=Geometric Mean, read-out: t½ (converted)) was 9.88 h. For the same compound, the half-life (24 mg/m2, Cohort 3, 24 mg/m^2 IV, range over subjects, read-out: Half-lives range) was 7.85 to 13.1 h, the concentration at 24.5 h (24 mg/m^2, Cohort 3, 24 mg/m^2 IV, range over 3 subjects) was 0.00087 to 0.00291 µg/mL and the concentration at 1 h (24 mg/m^2, Compound 1 Concentration, Cohort 3, 24 mg/m^2 IV, Time 1.0 h) was 0.0392 µg/mL. The concentration at 2.5 h (24 mg/m^2, Compound 1 Concentration, Cohort 3, 24 mg/m^2 IV, Time 2.5 h) was 0.015 µg/mL, the concentration at 3.5 h (24 mg/m^2, Compound 1 Concentration, Cohort 3, 24 mg/m^2 IV, Time 3.5 h) was 0.0116 µg/mL and the concentration at 6.5 h (24 mg/m^2, Compound 1 Concentration, Cohort 3, 24 mg/m^2 IV) was 0.0067 µg/mL. For the same compound, the concentration at 8.5 h (24 mg/m^2, Compound 1 Concentration, Cohort 3, 24 mg/m^2 IV, Time 8.5 h) was 0.00491 µg/mL and the AUC(0-inf) (48 mg/m2, Cohort 4, 48 mg/m^2 IV, mean, read-out: AUCinf averaged) was 0.499 µg·h/mL.
